Data reported in patent US20180117159A1, “Method for producing solid formulations with improved dissolution by annealing with an adjuvant” (priority 2016, published 2018).

Experiments:
Format in all cases: physicochemical
[1] = solubility of indomethacin in aqueous buffer at pH 2.5 (excess solid, stirred, 20 nm filtered, HPLC)
Protocol: In addition to Examples 1-6, other experiments were done in which the solubility of indomethacin in aqueous buffer at pH 2.5 was determined. This was done by placing an excess amount of indomethacin solid (approximately 100 mg) in 20 mL of the buffer and stirring at a constant temperature of 37° C. for three days, after which an aliquot was taken and filtered through a Watman Anotop-10 20 nm filter, then assayed by HPLC for the dissolved indomethacin concentration in the solution. Subsequently, the temperature of the remaining indomethacin-buffer mixture was raised to approximately 95° C. and kept at that temperature with stirring for an additional 24 hours. After 24 hours, the dissolved indomethacin concentration was again determined by taking an aliquot, filtering through a 20 nm Anotop-10 filter, and assaying by HPLC.

[2] = dissolution, USP Type II (paddle) apparatus, 150 mg formulation in 500 mL phosphate buffer pH 2.5 at 37° C.; conditions: pH 2.5 buffer, 30 minutes
Protocol: Dissolution experiments were done using a USP Type II (paddle type) apparatus, dissolving 150 mg of formulation in 500 mL of water buffered to a pH of 2.5 using phosphate buffer at 37° C. This corresponded to 15 mg of indomethacin per 500 mL of dissolution medium for the 10% indomethacin formulation, and 30 mg of indomethacin per 500 mL of dissolution medium for the 20% indomethacin formulation. In addition, pure indomethacin was dissolved in a similar USP type II apparatus for 30 minutes for comparison. […]

[3] = differential scanning calorimetry of annealed indomethacin-PVP mixtures (absence of melting endotherm = all drug dissolved)
Protocol: Binary physical mixtures of the drug indomethacin and the polymer PVP (polyvinylpyrrolidone K29/32), both used as received, were mixed in various ratios, so the drug weight fraction ranged from 2.5-30% w/w (compared to the total physical mixture). Mixing was done for 15 minutes using a mortar and pestle. Solid solutions were then prepared by annealing and annealing with an adjuvant.
Annealing was done by transferring weighed samples of the physical mixtures into glass vials, which were then stored in an oven without inducing a vacuum at 130° C. for 6 days to equilibrate and allow the indomethacin to distribute and dissolve in the PVP. After annealing, the samples were allowed to cool to room temperature.
Annealing with an adjuvant was done by transferring weighed amounts of the physical mixtures into glass vials, then adding the adjuvant ethanol dropwise to the surface of the physical mixture in each vial in an adjuvant weight equal to approximately 25% of each dry drug-polymer physical mixture sample. No mixing of the adjuvant and physical mixture was done after adding the ethanol drops. The drug, polymer and adjuvant were then allowed to anneal in an oven at 70° C., with some samples annealing for 4 hours, some for 8 hours and some for 12 hours. After annealing with an adjuvant for each specified time, the samples were allowed to cool to room temperature. […]

COc1ccc2c(c1)c(CC(=O)O)c(C)n2C(=O)c1ccc(Cl)cc1 [indomethacin]
estimate for the solubility of indomethacin in the aqueous buffer ([1]; 37° C., pH 2.5, estimate from solubility experiment and Example 1 dissolution): one to two | solubility at 3 days ([1]; aqueous buffer, thermodynamic from solid, pH 2.5, 37° C., after three days stirring, read-out: dissolved indomethacin concentration (solubility) in aqueous buffer): < 1 µg/mL | solubility ([1]; aqueous buffer, thermodynamic from solid, pH 2.5, three days at 37° C. plus an additional day at 95° C., read-out: dissolved indomethacin concentration (solubility) in aqueous buffer): ~27 µg/mL | dissolved indomethacin concentration (solubility) in aqueous buffer ([1]; pH 2.5, 37° C., after three days stirring): below one | dissolution in the aqueous buffer compared with indomethacin in physical mixtures with PVP [2]: much slower | indomethacin concentration in PVP up to which all of the drug dissolved (no melting endotherm by DSC) ([3]; annealed with ethanol adjuvant (about 25% of mixture weight) for 12 hours at 70° C.): approximately 15 % by weight | indomethacin concentration in PVP up to which all of the drug dissolved (no melting endotherm by DSC) ([3]; annealed without an adjuvant for 6 days at 130° C.): approximately 15 % by weight
